Entries after “also recorded” stand apart in the source; their conditions may differ.
What was measured:
[1] = Stability of ERAP1-peptide in MCF-7 cells, immunoblotting; type: in vitro ADME, human
Method: FIG. 37 is a diagram illustrating the results of evaluations for the stability of the ERAP1-peptide and the influence of the ERAP1-peptide on cellular E2. […] MCF-7 cells were treated with 10 μM HA-tagged ERAP1-peptide. Then, immediately, the cells were temporally stimulated with 10 nM E2. The data are standardized with β-actin, and show the ratio when the value at 1 hour (n=1, 3) or at 3 hours (n=2) is designated as 100. […] MCF-7 cells were treated with 10 μM ERAP1-peptide. Then, immediately, the cells were temporally stimulated with 10 nM E2. The cell lysate was centrifuged, and then the supernatant and a precipitate lysed with methanol were mixed (final concentration of methanol: 10%), and the cellular E2 concentration was measured with a commercially available kit (17β-estradiol ELISA kit, Wako Pure Chemical Industries, Ltd.).

MCF-7 cells = assay: Cell cycle FACS analysis, MCF-7; type: cell-based, human; settings: 10 μM ERAP1-peptide and/or 10 nM tamoxifen, 10 nM E2 24 hours
Method: FIG. 6-2 is a diagram illustrating that ERAP1-peptide treatment suppresses ERα-dependent cell proliferation of breast cancer cell lines. […] MCF-7 cells were treated with 10 μM ERAP1-peptide or 10 μM tamoxifen. Then, immediately, the cells were stimulated with 10 nM E2 for 24 hours. After the immobilization, the cells were stained with propidium iodide, and analyzed by flow cytometry.
FIG. 19 is a diagram illustrating the results of FACS analysis showing the effects of concomitant use of the ERAP1-peptide and tamoxifen on the cell cycle.
The cells were fixed with cold 70% ethanol, and stained with 20 μg/ml propidium iodide (Sigma) and 1 mg/ml ribonuclease A (Sigma), and analyzed with FACSCalibur (B D, Franklin Lakes, N.J., USA). The cell cycle was evaluated using CellQuest software (BD).
MCF-7 cells were treated with 10 μM ERAP1-peptide and/or 10 nM tamoxifen. Then, immediately, the cells were stimulated with 10 nM E2 for 24 hours. After the immobilization, the cells were stained with propidium iodide, and analyzed by flow cytometry.

CSCC[C@H](NC(=O)[C@H](CCC(N)=O)NC(=O)[C@H](CCCNC(=N)N)NC(=O)[C@H](CCCNC(=N)N)NC(=O)[C@H](CCCNC(=N)N)NC(=O)[C@H](CCCNC(=N)N)NC(=O)[C@H](CCCNC(=N)N)NC(=O)[C@H](CCCNC(=N)N)NC(=O)[C@H](CCCNC(=N)N)NC(=O)[C@H](CCCNC(=N)N)NC(=O)[C@H](CCCNC(=N)N)NC(=O)[C@H](CCCNC(=N)N)NC(=O)[C@@H](N)CCCNC(=N)N)C(=O)N[C@@H](CC(C)C)C(=O)N[C@@H](CO)C(=O)N[C@@H](CC(=O)O)C(=O)N[C@@H](CC(C)C)C(=O)N[C@H](C(=O)N[C@@H](CC(C)C)C(=O)N[C@@H](CCC(N)=O)C(=O)N[C@@H](CC(C)C)C(=O)N[C@@H](CCCNC(=N)N)C(=O)N[C@@H](CCC(N)=O)C(=O)N[C@@H](CCCNC(=N)N)C(=O)O)[C@@H](C)O [ERAP1-peptide]
residual percentage of the ERAP1-peptide ([1]; 24 hours after the administration, on average): 84%
residual percentage of the ERAP1-peptide ([1]; after 30 hours): 56%
residual percentage of the ERAP1-peptide ([1]; after 36 hours): 58%
residual percentage of the ERAP1-peptide ([1]; after 48 hours): 54%
half-life ([1]; human, in MCF-7 cells): ~30 h
cell cycle (MCF-7 cells): induced stop of the G1 phase; also recorded: increase of cells having stopped in the G1 phase

Source: patent US9725490B2, “ERAP1-derived peptide and use thereof” (TOKUSHIMA UNIVERSITY, priority 2011, dated 2017)
